# Test results published in US20050153872A1, “Methods and compositions for the treatment of infection” (priority 2004, published 2005).
# Like-named read-outs stand apart in the source and are kept apart here.
# Key:
# [1] = test system: Staphylococcus aureus MRSA BAA-42; experiment: microbe, parasite or virus in culture; type: cell-based; conditions: Staphylococcus aureus MRSA BAA-42; read-out: MIC
# ATCC 700802 VRE cells [2] = experiment: Electron micrographs of bactericidal effects of Ph-EF; type: cell-based, Enterococcus; conditions: Ph-EF 10 ug/ml 0.5 and 2 hr; Ph-SA 10 ug/ml 2 hr; vancomycin 20 ug/ml 2 hr
# Method: Electron Microraphs of Bactericidal Effects of Ph-EF Against ATCC 700802 VRE Cells (1% Phosphotungstic Acid, 15.000×).
# Bactericidal effects of ph-EF were tested and monitored by electron microscopy. FIG. 16 depicts electron micrographs of (a) untreated cells; (b) and (c) cells treated with Ph-EF (10 ug/ml) for 0.5 hr; (d) untreated cells for 2 hr; (e) cells treated by Ph-SA (10 ug/ml) for 2 hr; (f) cells treated with vancomycin (20 ug/ml) for 2 hr; (g) and (h) cells treated with Ph-EF (10 ug/ml) for 2 hrs.
# [3] = test system: Staphylococcus aureus MRSA 02-18; experiment: In vivo protection of infected mice; design: species or system Kungming mice; conditions: Staphylococcus aureus, MRSA
# Method: (§1) The following experiments were performed by Pharmacology Lab, National Sichuan antibiotic industril institute, Chengdu, Sichuan.
# (§2) The agents described above were diluted with sterilized water to final concentrations of 10 mg/L, 5 mg/Land 2.5 mg/L.
# (§3) Staphylococcus aureus ATCC BAA-42(MRSA) and enterococcus faecalis ATCC 700802 were used as control strains.
# (§4) 170 mice (Kungming mice: 18˜22 g, 85 males and 85 females) were randomly divided into four groups and injected with a fatal dosage of staphylococci, enterococcus and E. coli intraperitoneally. […] Mice were inspected every 24 hours for 7-14 days. Dead mice were counted as positive results. The results are depicted in Table 3 and FIGS. 4 and 5A-B.
# [4] = test system: Enterococcus faecalis ATCC 700802; experiment: In vivo protection of infected mice; design: species or system Kungming mice; conditions: Enterococcus faecalis
# Method: as §1, §2, §3, §4
# [5] = test system: Staphylococcus aureus MRSA BAA-42; experiment: In vivo protection of infected mice; design: species or system Kungming mice; conditions: Staphylococcus aureus
# Method: as §1, §2, §3, §4
# ATCC 700802 VRE cells [6] = experiment: Ph-EF protection of ATCC 700802 infected mice; type: in vivo; conditions: 5 animals
# Method: To assess in vivo effects of Ph-EF, mice were injected with a fatal dosage of ATCC 700802 VRE cells intraperitoneally. […] Mice were inspected every 24 hours for 7-14 days. Dead mice would be counted as positive results.
# [7] = test system: Staphylococcus aureus ATCC 29213; experiment: MIC against challenge strain (Table 3); type: cell-based; conditions: ATCC29213, read-out: MIC
# [8] = test system: Staphylococcus epidermidis MRSE strain (25); experiment: In vitro antibacterial activity (MIC), clinical isolates; type: cell-based; conditions: Staphylococcus epidermidis, MRSE
# Method: (§5) The following experiments were performed by Lab. of Pharmacology, National Sichuan antibiotic industril institute, Chengdu, Sichuan.
# (§6) The following agents were used to test the in vitro activity of Ph-SA:
# (§7) All the bacterial strains used in the experiments were clinical isolates collected from Sichuan and Beijing in 2002 and identified by West China Hospital, Sichuan University and Chongqing University of Medical Sciences with API system. The following strains were used in the experiments detailed below: Staphylococcus aureus 168 strains (MRSA 80 strains and MSSA 88 strains) Staphylococcus epidermidis 46 strains (MRSE 25 strains and MSSE 21 strains), Enterococcus 20 strains, and Acenetobactor 20 strains. Staphylococcus aureus ATCC25923, 29213 and BAA-42 were used as control strains. Bacterial strains were contacted with one of the above described compounds and MIC50, MIC90 and MICScope were determined.
# [9] = test system: Staphylococcus epidermidis MSSE strain (21); experiment: as above; type: cell-based; conditions: Staphylococcus epidermidis, 21 MSSE clinical isolates
# Method: as §5, §6, §7
# Enterococcus (20) = experiment: as above; type: cell-based; conditions: 20 Enterococcus clinical isolates
# Method: as §5, §6, §7
# Acenetobactor (20) = experiment: as above; type: cell-based
# Method: as §5, §6, §7
# [10] = test system: Staphylococcus aureus MRSA strain (80); experiment: as above; type: cell-based; conditions: Staphylococcus aureus, MRSA
# Method: as §5, §6, §7
# [11] = test system: Staphylococcus aureus MSSA strain (88); experiment: as above; type: cell-based; conditions: Staphylococcus aureus, 88 MSSA clinical isolates
# Method: as §5, §6, §7
# [12] = test system: Staphylococcus aureus MRSA 02-18; experiment: microbe, parasite or virus in culture; type: cell-based; conditions: Staphylococcus aureus MRSA 02-18; read-out: MIC
# [13] = test system: Staphylococcus aureus ATCC 29213; experiment: In vivo protection of infected mice; design: species or system Kungming mice; conditions: Staphylococcus aureus, i.p. infection 3.6 × 10^5 cfu/ml, read-out: ED50
# Method: as §1
# (§8) The agents described above were diluted with sterilized water to final concentrations of 10 mg/L, 5 mg/Land 2.5 mg/L. […]
# as §4
# Escherichia coli 02-1-65 [14] = experiment: In vivo protection of infected mice; design: species or system Kungming mice; conditions: i.p. infection 3.3 × 10^5 cfu/ml, read-out: ED50
# Method: as §1, §8, §4
# [15] = test system: Vancomycin-resistant Enterococcus ATCC 700802; conditions: 10 ug/ml; ATCC 700802
# [16] = test system: Enterococcus faecalis ATCC 700802; experiment: microbe, parasite or virus in culture; type: cell-based; conditions: ATCC700802; Enterococcus faecalis ATCC 700802; read-out: MIC
# Escherichia coli 02-1-65 [17] = experiment: MIC against challenge strain (Table 3); type: cell-based; conditions: 02165, read-out: MIC
smiles,measurement,setting,value
CN[C@H](CC(C)C)C(=O)N[C@H]1C(=O)N[C@@H](CC(N)=O)C(=O)N[C@H]2C(=O)N[C@H]3C(=O)N[C@H](C(=O)N[C@H](C(=O)O)c4cc(O)cc(O)c4-c4cc3ccc4O)[C@H](O)c3ccc(c(Cl)c3)Oc3cc2cc(c3O[C@@H]2O[C@H](CO)[C@@H](O)[C@H](O)[C@H]2O[C@H]2C[C@](C)(N)[C@H](O)[C@H](C)O2)Oc2ccc(cc2Cl)[C@H]1O [Vancomycin],MIC,[1],0.06 µg/mL
same,morphological alteration in VRE cells (electron micrographs),ATCC 700802 VRE cells [2],no morphological alteration
same,ED50,[3],2.39 mg/kg
same,ED50,[3]; 1 h,2.27 mg/kg
same,ED50,[4]; ATCC700802,2.64 mg/kg
same,ED50,"[4]; ATCC700802, 1 h",3.17 mg/kg
same,ED50,[5],3.53 mg/kg
same,ED50,[5]; 1 h,3.64 mg/kg
same,Death distribution in hours 24 h,ATCC 700802 VRE cells [6]; 5 mg/kg intravenously,3
same,Death distribution in hours 48 h,ATCC 700802 VRE cells [6]; 5 mg/kg intravenously,2
same,Death distribution in hours 72 h,ATCC 700802 VRE cells [6]; 5 mg/kg intravenously,1
same,Death distribution in hours 96 h,ATCC 700802 VRE cells [6]; 5 mg/kg intravenously,0
same,Death distribution in hours 120 h,ATCC 700802 VRE cells [6]; 5 mg/kg intravenously,0
same,Death distribution in hours 144 h,ATCC 700802 VRE cells [6]; 5 mg/kg intravenously,0
same,Death distribution in hours 168 h,ATCC 700802 VRE cells [6]; 5 mg/kg intravenously,0
same,Number of Death,ATCC 700802 VRE cells [6]; 5 mg/kg intravenously,3
same,Death distribution in hours 24 h,ATCC 700802 VRE cells [6]; 10 mg/kg intravenously,1
same,Death distribution in hours 48 h,ATCC 700802 VRE cells [6]; 10 mg/kg intravenously,1
same,Death distribution in hours 72 h,ATCC 700802 VRE cells [6]; 10 mg/kg intravenously,0
same,Death distribution in hours 96 h,ATCC 700802 VRE cells [6]; 10 mg/kg intravenously,0
same,Death distribution in hours 120 h,ATCC 700802 VRE cells [6]; 10 mg/kg intravenously,0
same,Death distribution in hours 144 h,ATCC 700802 VRE cells [6]; 10 mg/kg intravenously,0
same,Death distribution in hours 168 h,ATCC 700802 VRE cells [6]; 10 mg/kg intravenously,0
same,Number of Death,ATCC 700802 VRE cells [6]; 10 mg/kg intravenously,1
same,MIC,[7],0.5 µg/mL
same,MIC50,[8],0.5 µg/mL
same,MIC90,[8],1 µg/mL
same,MIC,[8]; read-out: MIC Scope,0.25 to 2 µg/mL
same,MIC,[9],0.06 to 0.5 µg/mL
same,MIC50,[9]; read-out: MIC50,0.5 µg/mL
same,MIC90,[9]; read-out: MIC90,0.5 µg/mL
same,MIC,Enterococcus (20),0.5 to 50 µg/mL
same,MIC50,Enterococcus (20); read-out: MIC50,1 µg/mL
same,MIC90,Enterococcus (20); read-out: MIC90,2 µg/mL
same,MIC50,Acenetobactor (20),> 128 µg/mL
same,MIC90,Acenetobactor (20),> 128 µg/mL
same,MIC50,[10],0.25 µg/mL
same,MIC90,[10],1 µg/mL
same,MIC,[10]; read-out: MIC Scope,0.004 to 2 µg/mL
same,MIC50,[11]; read-out: MIC50,0.5 µg/mL
same,MIC90,[11]; read-out: MIC90,1 µg/mL
same,MIC,[11]; read-out: MIC Scope,0.03 to 1 µg/mL
same,MIC,[12],0.06 µg/mL
same,ED50,"[13]; ATCC29213, 2nd Time (value in parentheses), i.v. treatment",2.09 mg/kg
same,ED50,"[13]; ATCC29213, 1 h, 1st Time, i.v. treatment after one hour",2.32 mg/kg
same,ED50,"Escherichia coli 02-1-65 [14]; Escherichia coli, 02165, 2nd Time (value in parentheses), i.v. treatment",> 30.8 mg/kg
same,ED50,"Escherichia coli 02-1-65 [14]; Escherichia coli, 02165, 1 h, 1st Time, i.v. treatment after one hour",> 30.8 mg/kg
same,inhibition of VRE cell growth,[15],only partially inhibited VRE cell growth
same,MIC,[16],16 µg/mL
same,MIC,Escherichia coli 02-1-65 [17],128 µg/mL
